Data on seven molecules can be found in paper PMC9972151, “Phase I study of plitidepsin in combination with bortezomib and dexamethasone in patients with relapsed/refractory multiple myeloma” (Cancer Medicine, 2022).

For series [1], the system named is MM. Also noted: method as in PMID 23950178, PMID 28642620, PMID 24429336, PMID 28847998, PMID 27091875. The note with it: named drug in a BTZ and DXM-containing combination; cited from earlier work.
Series [2] concerns MM. The note with it: cited from earlier work. The text has this:
Results of the VISTA trial were further supported by those of phase II trials: RETRIEVE (ORR: 40%) and SUMMIT (ORR: 35%, including minimal response while on BTZ treatment), and of the phase III APEX trial (crossover from DXM to BTZ), in which the overall and complete response rates with BTZ were 43% and 9%, respectively.[9], [10], [11]

Series [3] is described as follows: BTZ plasma pharmacokinetics, non-compartmental. The note with it: mean (SD); for C max: NCA, UPLC-MS/MS. It counts as in vivo, human. As for the experimental part:
(§1) Sixteen samples were collected from each patient to quantify plitidepsin whole blood and BTZ plasma concentrations at baseline and at different times 1 week after the first infusion. In patients treated at the RD, 15 additional samples were taken 1 week after the second plitidepsin infusion.
(§2) Continuous variables were presented with summary statistics and categorical variables in frequency tables. Time‐to‐event variables were calculated using Kaplan–Meier approach. Binomial exact distribution was used to calculate 95% confidence intervals (95%CIs) for categorical variables. Individual PK parameters were tabulated. Statistical analyses were performed using SAS v.9.2, (SAS Institute Inc), and PK non‐compartmental analysis (NCA) was performed using Phoenix WinNonlin v.6.3.
Both drugs (plitidepsin and BTZ) were measured by validated liquid extraction methods followed by ultra-performance liquid chromatography tandem mass-spectrometry detection (Dynakin, Derio, Spain). The calibration range for plitidepsin and BTZ was 0.25-100 ng/mL, and 0.1-5 ng/mL, respectively.

Details of series [4]: method as in Moreau et al[25]. The following applies: BTZ 1.3 mg/m^2 subcutaneously, reference study in MM patients; mean (SD), n = 10; ref Moreau et al[25]; cited from earlier work.
For series [5], the system named is MM. The note with it: phase III VISTA trial; single-agent BTZ re-treatment; cited from earlier work. From the text: The feasibility of re‐treating MM patients with single‐agent bortezomib (BTZ) was first confirmed in the phase III VISTA trial,[8] where 47% of patients pre‐treated with BTZ‐based regimens during earlier phases of the disease responded again to the drug alone. This was further supported by the results of the phase II RETRIEVE and SUMMIT trials and the phase III APEX trial.[9], [10], [11]

The conditions of series [6]: patients with MM treated with plitidepsin in other trials; ref unpublished data; cited from earlier work. From the text:
The plitidepsin concentrations found in this study fitted within the 90% prediction interval simulated for patients with MM, although most were above the 50th pe ...

Series [7] in a line: Plitidepsin whole blood pharmacokinetics, non-compartmental. The note with it: human, iv, mean (SD); for Cmax: NCA, UPLC-MS/MS. The format is in vivo. How it is done:
as §1, §2
Both drugs (plitidepsin and BTZ) were measured by validated liquid extraction methods followed by ultra-performance liquid chromatography tandem mass-spectrometry detection (Dynakin, Derio, Spain). The calibration range for plitidepsin and BTZ was 0.25-100 ng/mL, and 0.1-5 ng/mL, respectively. The reference for plitidepsin PK results was a population-PK model of plitidepsin (data from 303 patients treated in seven phase II studies and one phase III study), which was used to simulate exposure in whole blood after one 3-hour i.v. infusion of 5.0 mg/m² of plitidepsin in patients with similar characteristics compared to those treated in this study (unpublished data). The reference for BTZ PK results was a phase I study in patients with MM (see Moreau et al (25)).

Series [8] has as its system MM cell lines and primary MM cells. The following applies: cited from earlier work. The text has this:
The positive results observed with plitidepsin and BTZ against MM (both as single agents and in combination with DXM), their different mechanisms of action, and the potential synergism of the triple combination warranted the exploration of the efficacy of plitidepsin plus BTZ and DXM in a clinical trial in patients with relapsed and/or refractory MM.

[9] abbreviates: phase III APEX trial (crossover from DXM to BTZ).
Where [10] appears, read: Dose level 1 4.0/1.0/40.0, Day 1 of Cycle 1, NCA, n = 6.
Setting [11] is: Dose level 2 4.0/1.3/40.0, Day 1 of Cycle 1, NCA, n = 3.
Where [12] appears, read: Dose level 3 (RD cohort) 5.0/1.3/40.0, Day 1 of Cycle 1, NCA, n = 9.

Where “and” joins values, the source holds several entries; their conditions need not be identical. Identical values can stand only once. Like-named read-outs stand apart in the source and are kept apart here. Numbered stars: 1 amine (or outer) side, 2 acyl side, 3 side chain; on linkers, the order of the positions; unused ones are H or OH. Bridge positions count the residues as written; N and C are the ends. Square brackets hold non-standard residues; d marks the D form. Peptide text beside a SMILES is read from it. * marks the point of attachment. X1 = CC[C@H](C)[C@@H](N[*:1])[C@@H](O)CC(=O)O[C@H](C(=O)[C@H](C)C(=O)[*:2])C(C)C; NMeY = CN[C@@H](Cc1ccc(O)cc1)C(=O)O; dNMeL = CN[C@H](CC(C)C)C(=O)O; Pyruvoyl = CC(=O)C(=O)*

elotuzumab: in the series on MM [1], the “Median DoR” value is reported as 11.4 months.
With `CC(C)C[C@H](NC(=O)[C@H](Cc1ccccc1)NC(=O)c1cnccn1)B(O)O` [BTZ, bortezomib], the ORR with MM [2] (phase II RETRIEVE trial) is recorded as 40%; in the series with MM [2] (phase II SUMMIT trial, including minimal response while on BTZ treatment), 35%. Besides, in the series with MM [2] (setting [9]), the Complete response rate was 9%. In the series on MM [2] (setting [9]), the Overall response rate is given as 43%. The “AUC (time zero to infinity)” value in series [3] (setting [10]) is 77.7 (17.9) h*μg/L; in series [3] (setting [11]) it was 134 (46.8) h*μg/L; in series [3] (setting [12]), 138 (88.6) h*μg/L; in series [4], 151 (53.5) h*μg/L. The “CL/F (total clearance after extravascular administration)” value is 23.4 (6.79) L/h in series [3] (setting [10]); 17.9 (6.03) L/h in series [3] (setting [11]); 24.9 (19.2) L/h in series [3] (setting [12]); 16.6 L/h and 16.6 (5.8) L/h in series [4]. The “HL (terminal half-life)” value is reported as 39.1 (9.22) h in series [3] (setting [10]), 51.5 (41.4) h in series [3] (setting [11]), 49.0 (17.8) h in series [3] (setting [12]) and 65.7 (46.5) h in series [4]. Moreover, the “V z /F (apparent volume of distribution during terminal phase after extravascular administration)” value in series [3] (setting [10]) is 1308 (431) L; in series [3] (setting [11]), 1208 (52.4) L; in series [3] (setting [12]) it was 1658 (1457) L; in series [4], 1330 L and 1330 (578) L. In addition, the C max in series [3] (Dose level 1 4.0/1.0/40.0, Day 1 of Cycle 1, subcutaneous bolus, n = 6) is 11.0 (7.71) μg/L; in series [3] (Dose level 2 4.0/1.3/40.0, Day 1 of Cycle 1, subcutaneous bolus, n = 3), 16.9 (4.21) μg/L; in series [3] (Dose level 3 (RD cohort) 5.0/1.3/40.0, Day 1 of Cycle 1, subcutaneous bolus, n = 9) it was 17.0 (8.87) μg/L; in series [4], 16.5 μg/L and 16.5 (8.4) μg/L. Also, the “Patients pre-treated with BTZ-based regimens who responded again to the drug alone” value in the series on MM [5] is on record as 47%.
Regarding `Nc1cccc2c1C(=O)N(C1CCC(=O)NC1=O)C2=O` (stereo not drawn) [pomalidomide], in the series with MM [1], the “Median DoR” value is listed as 7.4 months.
As to `Cc1[nH]c2ccccc2c1CCNCc1ccc(/C=C/C(=O)NO)cc1` [panobinostat], the “Median DoR” value with MM [1] is given as 6.0 months.
In the case of `Nc1cccc2c1CN(C1CCC(=O)NC1=O)C2=O` (stereo not drawn) [lenalidomide], the “Median DoR” value in the series with MM [1] was 8.7 months.
As to `CC[C@H](C)[C@H]1NC(=O)[C@@H](NC(=O)[C@@H](CC(C)C)N(C)C(=O)[C@@H]2CCCN2C(=O)C(C)=O)[C@@H](C)OC(=O)[C@H](Cc2ccc(OC)cc2)N(C)C(=O)[C@@H]2CCCN2C(=O)[C@H](CC(C)C)NC(=O)[C@@H](C)C(=O)[C@H](C(C)C)OC(=O)C[C@@H]1O` [Plitidepsin, plitidepsin] (Pyruvoyl-P[dNMeL]T[X1]LP[NMeY](Me); ester 3-C (inferred); N-terminus assumed), the “Median CL” value in series [6] is 4.4 L/h. Besides, in series [6], the Median peripheral volume was 513 L. Also, the Cmax came to 83.8 ng/mL in series [7] (Dose level 1 4.0/1.0/40.0, Day 1 of Cycle 1, 3-h i.v. infusion, n = 5); 117 ng/mL in series [7] (Dose level 2 4.0/1.3/40.0, Day 1 of Cycle 1, 3-h i.v. infusion, n = 3); 71.7 ng/mL in series [7] (Dose level 3 (RD cohort) 5.0/1.3/40.0, Day 1 of Cycle 1, 3-h i.v. infusion, n = 9). Also, the AUC(0-inf) came out at 1260 ng·h/mL in series [7] (Dose level 1 4.0/1.0/40.0, Day 1 of Cycle 1, NCA, n = 5, read-out: AUC (time zero to infinity)); 1420 ng·h/mL in series [7] (Dose level 2 4.0/1.3/40.0, Day 1 of Cycle 1, NCA, n = 3, read-out: AUC (time zero to infinity)); 1060 ng·h/mL in series [7] (Dose level 3 (RD cohort) 5.0/1.3/40.0, Day 1 of Cycle 1, NCA, n = 9, read-out: AUC (time zero to infinity)). The clearance in series [7] (Dose level 1 4.0/1.0/40.0, Day 1 of Cycle 1, NCA, n = 5, read-out: CL (total clearance) (converted)) is 94.5 mL/min; in series [7] (Dose level 2 4.0/1.3/40.0, Day 1 of Cycle 1, NCA, n = 3, read-out: CL (total clearance) (converted)) it was 93.2 mL/min; in series [7] (Dose level 3 (RD cohort) 5.0/1.3/40.0, Day 1 of Cycle 1, NCA, n = 9, read-out: CL (total clearance) (converted)), 157 mL/min. The half-life was 40.1 h in series [7] (Dose level 1 4.0/1.0/40.0, Day 1 of Cycle 1, NCA, n = 5, read-out: HL (terminal half-life) (converted)); 46.2 h in series [7] (Dose level 2 4.0/1.3/40.0, Day 1 of Cycle 1, NCA, n = 3, read-out: HL (terminal half-life) (converted)); 44.6 h in series [7] (Dose level 3 (RD cohort) 5.0/1.3/40.0, Day 1 of Cycle 1, NCA, n = 9, read-out: HL (terminal half-life) (converted)). Also, the Vd in series [7] (Dose level 1 4.0/1.0/40.0, Day 1 of Cycle 1, NCA, n = 5, read-out: V ss (volume of distribution at steady-state)) was 169 L; in series [7] (Dose level 1 4.0/1.0/40.0, Day 1 of Cycle 1, NCA, n = 5, read-out: V z (apparent volume of distribution during terminal phase)), 185 L; in series [7] (Dose level 2 4.0/1.3/40.0, Day 1 of Cycle 1, NCA, n = 3, read-out: V ss (volume of distribution at steady-state)), 192 L; in series [7] (Dose level 2 4.0/1.3/40.0, Day 1 of Cycle 1, NCA, n = 3, read-out: V z (apparent volume of distribution during terminal phase)), 394 L; in series [7] (Dose level 3 (RD cohort) 5.0/1.3/40.0, Day 1 of Cycle 1, NCA, n = 9, read-out: V ss (volume of distribution at steady-state)), 341 L; in series [7] (Dose level 3 (RD cohort) 5.0/1.3/40.0, Day 1 of Cycle 1, NCA, n = 9, read-out: V z (apparent volume of distribution during terminal phase)), 671 L. In addition, the “In vitro activity of the combination of plitidepsin with BTZ or DXM” value in series [8] is recorded as “synergistic activity”.
Regarding `CC1(C)CCC(CN2CCN(c3ccc(C(=O)NS(=O)(=O)c4ccc(NCC5CCOCC5)c([N+](=O)[O-])c4)c(Oc4cnc5[nH]ccc5c4)c3)CC2)=C(c2ccc(Cl)cc2)C1` [venetoclax], the “Median DoR” value in the series with MM [1] is 9.7 months.
